Laboratory results taken from patent US20230097700A1, “AZETIDINE SULFONAMIDE COMPOUND” (DAIICHI SANKYO COMPANY, LIMITED, priority 2019, published 2023).
Where a name gives a salt, the structure may show the parent alone.

The molecules below were run on activated T cells (CD4+ T cells derived from the mouse spleen) (assay: Incorporation of 3H-thymidine into activated T cells). Conditions: 3H-thymidine incorporation, mouse spleen CD4+ T cells activated with Dynabeads Mouse T-Activator CD3/CD28.
Format: cell-based, mouse (C57BL/6J)
Procedure: Effect of a test substance on incorporation of ^3H-thymidine was evaluated using T cells derived from the mouse spleen. The spleen was excised out from a C57BL/6J mouse euthanized, cut into pieces, ground on a cell strainer (40 μm mesh) and centrifuged to collect spleen cells. CD4+ T cells were isolated from the spleen cells by use of EasySep Mouse CD4+ T cell isolation kit (STEMCELL Technologies). CD4+ T cells were seeded to a 96-well round-bottom plate. Test substance dissolved in DMSO (dimethyl sulfoxide) or vehicle (DMSO) was added to culture medium and Dynabeads Mouse T-Activator CD3/CD28 (Thermo Fisher Scientific Inc.) was added. Culture was carried out at 37° C. in 5% CO2. After culture was carried out for 24 hours, ^3H-thymidine (PerkinElmer) diluted with the culture medium was added to individual wells. Culture was further carried out overnight at 37° C. in 5% CO2. In order to measure ^3H-thymidine incorporated in nuclei of the cells, the cells were collected on a filter plate UniFilter-96 GF/B (PerkinElmer) by use of a FilterMate Universal Harvester (PerkinElmer). After the filter plate was placed in a dryer and allowed to stand still for 2 hours or more, scintillation cocktail MicroScint-O (PerkinElmer) was added and radioactivity was measured by TopCount NXT (PerkinElmer). With the radioactivity of a group not containing a test substance being specified as 100% and the radioactivity of a group not activated being specified as 0%, relative radioactivity values of individual wells to which the test substance was added (proliferation rate, % of vehicle) were calculated. The values of “% of vehicle” were entered in analysis software Prism (Version 4.03, GraphPad Software). “Nonlinear regression Log (inhibitor) vs reaction variable tilt” was selected and sigmoid type-fitting (Bottom=0, Top=100) was carried out to calculate 50% inhibition concentration (IC50). The compound of the present invention suppresses ^3H-thymidine incorporation in activated T cells.
`N#Cc1ccc(OC2(c3ccc(F)c(F)c3)CN(S(=O)(=O)c3cccc(C[C@H](N)C(=O)O)c3)C2)cc1` [Example 38, (2S)-2-Amino-3-{3-[3-(4-cyanophenoxy)-3-(3,4-difluorophenyl)azetidin-1-sulfonyl]phenyl}propanoic acid monohydrochloride] showed an IC50 of 17 nM.
Molecule `C[C@H](OC(=O)[C@@H](N)Cc1cccc(S(=O)(=O)N2CC(Oc3cccc(F)c3)(c3ccccc3)C2)c1)C(=O)N(C)C` [Example 31, (2S)-1-(Dimethylamino)-1-oxopropan-2-yl (2S)-2-amino-3-{3-[3-(3-fluorophenoxy)-3-phenylazetidin-1-sulfonyl]phenyl}propanoate monotrifluoroacetate] has an IC50 of 21 nM.
Molecule `N#Cc1ccc(OC2(c3ccccc3)CN(S(=O)(=O)c3cccc(C[C@H](N)C(=O)O)c3)C2)cc1` [Example 18, (2S)-Amino-3-(3-{[3-(4-cyanophenoxy)-3-phenylazetidin-1-yl]sulfonyl}phenyl)propanoic acid] has an IC50 of 14 nM.
`N[C@@H](Cc1cccc(S(=O)(=O)N2CC(Oc3ccc(Cl)cc3)(c3ccc(F)cc3)C2)c1)C(=O)O` [Example 35, (2S)-2-Amino-3-{3-[3-(4-chlorophenoxy)-3-(4-fluorophenyl)azetidine-1-sulfonyl]phenyl}propanoic acid monohydrochloride] was tested, and the IC50 was 24 nM.
In the case of `N[C@@H](Cc1cccc(S(=O)(=O)N2CC(Oc3ccc4c(c3)CCNC4=O)(c3ccc(F)cc3)C2)c1)C(=O)O` [Example 8, (2S)-2-Amino-3-(3-{3-(4-fluorophenyl)-3-[(1-oxo-1,2,3,4-tetrahydroisoquinolin-6-yl)oxy]azetidin-1-sulfonyl}phenyl)propanoic acid monohydrochloride], the IC50 is reported as 13 nM.
In the case of `N[C@@H](Cc1cccc(S(=O)(=O)N2CC(Oc3ccc(Cl)cc3)(c3ccc(Cl)cc3)C2)c1)C(=O)O` [Example 53, (2S)-2-Amino-3-(3-{[3-(4-chlorophenoxy)-3-(4-chlorophenyl)azetidin-1-yl]sulfonyl}phenyl)propanoic acid monoformate], the IC50 is reported as 8.7 nM.
`[2H]c1c([2H])c([2H])c(OC2(c3ccccc3)CN(S(=O)(=O)c3cccc(C[C@H](N)C(=O)O)c3)C2)c([2H])c1[2H]` [Example 24, (2S)-2-Amino-3-(3-{3-phenyl-3-[(^2H5)phenyloxy]azetidin-1-sulfonyl}phenyl)propanoic acid] showed an IC50 of 12 nM.
For `NC(=O)c1ccc(OC2(c3ccccc3)CN(S(=O)(=O)c3cccc(C[C@H](N)C(=O)O)c3)C2)cc1` [Example 20, (2S)-2-Amino-3-{3-[3-(4-carbamoylphenoxy)-3-phenylazetidine-1-sulfonyl]phenyl}propanoic acid monoformate], the IC50 was 8.8 nM.
`Cc1ncc(OC2(c3ccc(F)cc3)CN(S(=O)(=O)c3cccc(C[C@H](N)C(=O)O)c3)C2)cc1F` [Example 49, (2S)-2-Amino-3-[3-({3-[(5-fluoro-6-methylpyridin-3-yl)oxy]-3-(4-fluorophenyl)azetidin-1-yl}sulfonyl)phenyl]propanoic acid dihydrochloride] gave an IC50 of 36 nM.
`CC(C)NC(=O)c1ccc(OC2(c3ccccc3)CN(S(=O)(=O)c3cccc(C[C@H](N)C(=O)O)c3)C2)cc1` [Example 11, (2S)-2-Amino-3-[3-(3-phenyl-3-{4-[(propan-2-yl)carbamoyl]phenoxy}azetidin-1-sulfonyl)phenyl]propanoic acid monoformate] gave an IC50 of 26 nM.
`N[C@@H](Cc1cccc(S(=O)(=O)N2CC(Oc3ccc4c(c3)COB4O)(c3ccc(F)cc3)C2)c1)C(=O)O` [Example 58, (2S)-2-Amino-3-[3-({3-(4-fluorophenyl)-3-[(1-hydroxy-1,3-dihydro-2,1-benzoxaborol-5-yl)oxy]azetidin-1-yl)sulfonyl)phenyl]propanoic acid monoformate] gave an IC50 of 16 nM.
`N[C@@H](Cc1cccc(S(=O)(=O)N2CC(Oc3cccc(F)c3)(c3ccc(F)cc3)C2)c1)C(=O)O` [Example 15, (2S)-Amino-3-(3-{[3-(3-fluorophenoxy)-3-(4-fluorophenyl)azetidin-1-yl]sulfonyl}phenyl)propanoic acid] showed an IC50 of 14 nM.
With `N#Cc1ccc(OC2(c3ccc(F)cc3)CN(S(=O)(=O)c3cccc(C[C@H](N)C(=O)O)c3)C2)cc1` [Example 34, (2S)-2-Amino-3-{3-[3-(4-cyanophenoxy)-3-(4-fluorophenyl)azetidine-1-sulfonyl]phenyl}propanoic acid monohydrochloride] the IC50 was 3.3 nM.
`CC(=O)c1ccc(OC2(c3ccc(F)cc3)CN(S(=O)(=O)c3cccc(C[C@H](N)C(=O)O)c3)C2)cc1F` [Example 4, (2S)-3-{3-[3-(4-Acetyl-3-fluorophenoxy)-3-(4-fluorophenyl)azetidine-1-sulfonyl]phenyl}-2-aminopropanoic acid monohydrochloride] was tested, and the IC50 was 12 nM.
For `CC(=O)c1cc(OC2(c3ccc(F)cc3)CN(S(=O)(=O)c3cccc(C[C@H](N)C(=O)O)c3)C2)ccc1F` [Example 5, (2S)-3-{3-[3-(3-Acetyl-4-fluorophenoxy)-3-(4-fluorophenyl)azetidine-1-sulfonyl]phenyl}-2-aminopropanoic acid monohydrochloride], the IC50 was 30 nM.
In the case of `N#Cc1ccc(OC2(c3ccc(F)cc3)CN(S(=O)(=O)c3cccc(C[C@H](N)C(=O)O)c3)C2)cn1` [Example 86b, monoformate], the IC50 is reported as 17 nM.
In the case of `N[C@@H](Cc1cccc(S(=O)(=O)N2CC(Oc3ccc(Cl)cc3)(c3ccc(F)c(F)c3)C2)c1)C(=O)O` [Example 36, (2S)-2-Amino-3-{3-[3-(4-chlorophenoxy)-3-(3,4-difluorophenyl)azetidin-1-sulfonyl]phenyl}propanoic acid monohydrochloride], the IC50 is reported as 19 nM.
In the case of `CCC(=O)c1ccc(OC2(c3ccc(F)cc3)CN(S(=O)(=O)c3cccc(C[C@H](N)C(=O)O)c3)C2)cc1` [Example 19, (2S)-2-Amino-3-{3-[3-(4-fluorophenyl)-3-(4-propanoylphenoxy)azetidin-1-yl]sulfonylphenyl}propanoic acid monotrifluoroacetate], the IC50 is reported as 30 nM.
Molecule `C[C@@H](OC(=O)[C@@H](N)Cc1cccc(S(=O)(=O)N2CC(Oc3cccc(F)c3)(c3ccccc3)C2)c1)C(=O)N(C)C` [Example 32, (2R)-1-(Dimethylamino)-1-oxopropan-2-yl (2S)-2-amino-3-{3-[3-(3-fluorophenoxy)-3-phenylazetidin-1-sulfonyl]phenyl}propanoate monotrifluoroacetate] has an IC50 of 18 nM.
In the case of `N[C@@H](Cc1cccc(S(=O)(=O)N2CC(Oc3ccc(OC(F)F)cc3)(c3ccccc3)C2)c1)C(=O)O` [Example 12, (2S)-2-Amino-3-(3-{3-[4-(difluoromethoxy)phenoxy]-3-phenylazetidin-1-sulfonyl}phenyl)propanoic acid monoformate], the IC50 is reported as 21 nM.
Work on `N[C@@H](Cc1cccc(S(=O)(=O)N2CC(Oc3ccc4c(c3)OCCO4)(c3ccccc3)C2)c1)C(=O)O` [Example 7, (2S)-2-Amino-3-(3-{3-[(2,3-dihydro-1,4-benzodioxin-6-yl)oxy]-3-phenylazetidin-1-sulfonyl}phenyl)propanoic acid monohydrochloride] yielded an IC50 of 16 nM.
With `Cc1cccc(OC2(c3ccccc3)CN(S(=O)(=O)c3cccc(C[C@H](N)C(=O)O)c3)C2)c1` [Example 43, (2S)-2-Amino-3-(3-{[3-(3-methylphenoxy)-3-phenylazetidin-1-yl]sulfonyl}phenyl)propanoic acid monohydrochloride] the IC50 was 18 nM.
In the case of `N[C@@H](Cc1cccc(S(=O)(=O)N2CC(Oc3ccc(F)cc3)(c3ccc(F)cn3)C2)c1)C(=O)O` [Example 47, (2S)-2-Amino-3-(3-{[3-(4-fluorophenoxy)-3-(5-fluoropyridin-2-yl)azetidin-1-yl]sulfonyl}phenyl)propanoic acid dihydrochloride], the IC50 is reported as 34 nM.
`CCn1cc(OC2(c3ccc(F)cc3)CN(S(=O)(=O)c3cccc(C[C@H](N)C(=O)O)c3)C2)cn1` [Example 56, (2S)-2-Amino-3-[3-({3-[(1-ethyl-1H-pyrazol-4-yl)oxy]-3-(4-fluorophenyl)azetidin-1-yl)sulfonyl)phenyl]propanoic acid dihydrochloride] gave an IC50 of 240 nM.
`Cc1ccc(OC2(c3ccccc3)CN(S(=O)(=O)c3cccc(C[C@H](N)C(=O)O)c3)C2)cc1F` [Example 45, (2S)-2-Amino-3-(3-{[3-(3-fluoro-4-methylphenoxy)-3-phenylazetidin-1-yl]sulfonyl}phenyl)propanoic acid monoformate] gave an IC50 of 23 nM.
Molecule `COc1ccc(OC2(c3ccc(F)cc3)CN(S(=O)(=O)c3cccc(C[C@H](N)C(=O)O)c3)C2)cn1` [Example 57, (2S)-2-Amino-3-[3-({3-(4-fluorophenyl)-3-[(6-methoxypyridin-3-yl)oxy]azetidin-1-yl}sulfonyl)phenyl]propanoic acid monoformate] has an IC50 of 16 nM.
`CCc1ccc(OC2(c3ccc(F)cc3)CN(S(=O)(=O)c3cccc(C[C@H](N)C(=O)O)c3)C2)cn1` [Example 48, (2S)-2-Amino-3-[3-({3-[(6-ethylpyridin-3-yl)oxy]-3-(4-fluorophenyl)azetidin-1-yl}-sulfonyl)phenyl]propanoic acid dihydrochloride] showed an IC50 of 22 nM.
